Assay results: article PMC7956560, “New 3-Aryl-2-(2-thienyl)acrylonitriles with High Activity Against Hepatoma Cells” (International Journal of Molecular Sciences, 2021)

Tests used:
[1] = biological target: T1, VEGFR-2 (KDR) (Homo sapiens, UniProt P35968); experiment: Enzymatic kinase assay (Eurofins KinaseProfiler); format: biochemical; settings: 10 µM compound, cell-free
T1 construct: purchased Eurofins KinaseProfiler service (Eurofins, France)
Experimental: (§1) The kinase inhibiting potency of compound 1a, 1b and 1c (10 µM) was screened in a cell-free kinase assay, which consisted of a custom panel of 43 human protein kinases for 1c (listed in Figure 5A), as well as a subpanel of six kinases for 1a and 1b (Figure 5B). The initial panel was chosen to screen the lead compound 1c based on the union of two strategies. A total of 29 kinases were selected based on the correlated results of three in silico target prediction methods including structure- as well as ligand-based techniques and 20 kinases because of their relevance for HCC (note that six kinases were part of both strategies).
(§2) The assay was performed by Eurofins KinaseProfilerTM service (Eurofins, France) and the determination of enzymatic activity was assessed as previously described. Additionally, an IC50 determination of compound 1c against the VEGFR-2 was performed with a concentration range of 0.003 to 30 µM.

[2] = biological target: T2, CLK1 (Homo sapiens, UniProt P49759); experiment: Enzymatic kinase assay (Eurofins KinaseProfiler); format: biochemical; settings: 10 µM compound, cell-free
T2 construct: purchased Eurofins KinaseProfiler service (Eurofins, France)
Experimental: as §1, §2

[3] = tested on: non-malignant murine AML-12 hepatocytes; experiment: Growth inhibition, crystal violet staining, AML-12; format: cell-based; settings: for IC50 against AML-12 hepatocytes relative to hepatoma cells: AML-12 vs hepatoma cells (HepG2, Huh-7), 48 h; for IC50: Mus musculus, AML12, 48 h incubation, mean ± SD, read-out: Anti-proliferative activity IC50, AML-12
Experimental: (§3) The well-differentiated p53 wild-type human hepatoblastoma cell line HepG2 (ATCC# 8065) and the highly differentiated p53 mutated human hepatocellular carcinoma cell line Huh-7 (JCRB#0403) were grown in RPMI 1640 medium supplemented with 10% fetal bovine serum and 100 U/mL penicillin and […] streptomycin. Murine AML-12 hepatocytes were obtained from ATCC (CRL-2254) and grown in DMEM/F-12 Glutamax medium supplemented with 10% fetal bovine serum, 10 µg/mL insulin, 5.5 µg/mL transferrin, 5 ng/mL selenium (Gibco ITS-G 100X) and 40 ng/mL dexamethasone (Sigma-Aldrich). All cell lines were incubated in a 37 °C, 5% CO2, 95% humidified atmosphere.
(§4) Treatment-induced changes in cell number were evaluated by crystal violet staining, as previously described. Briefly, 1.500 cells per well were seeded in 96-well plates for 24 h at 37 °C, 5% CO2. For the experiments with HepG2 and Huh-7 cell lines, cells were incubated with rising concentrations (0–20 µM) of the new compounds (1a–1o) for 48 h. AML12-cells were treated with compounds 1a, 1b, 1c, 1e, 1i and 1j for 48 h and at concentrations ranging from 0.5–64 µM. Thereafter, the cells were fixed with 1% glutaraldehyde and stained with 0.1% crystal violet (Sigma-Aldrich). The unbound dye was removed by rinsing with water. Bound crystal violet was solubilized with 0.2% Triton X-100 (Sigma-Aldrich). Light extinction of crystal violet, which increases linearly with cell number, was analyzed at 570 nm using an ELISA-Reader (Dynex Technologies, Denkendorf, Germany). All experiments were carried out in duplicate or triplicate.

[4] = tested on: human HepG2 hepatoblastoma cells; experiment: Growth inhibition, crystal violet staining, HepG2; format: cell-based; settings: 48 h incubation, mean ± SD, read-out: Anti-proliferative activity IC50, HepG2
Experimental: as §3, §4

[5] = tested on: caspase-3 activity of HepG2 cells; experiment: Apoptosis-specific caspase-3 activity; format: cell-based, human; settings: 24 h; for caspase-3 activity (in words): HepG2, 1 and 10 µM
Experimental: Changes in caspase-3 activity were measured by the cleavage of the fluorogenic substrate AC-DEVD-AMC (EMD Millipore, Billerica, MA, USA), as described previously. After 24 h of incubation with 1a, 1b, 1c, 1e and sorafenib (1 and 10 µM) the cells were harvested and lysed with lysis buffer. Subsequently, the lysates were incubated for 1 h at 37 °C with a substrate solution containing 20 μg/mL AC-DEVD-AMC, 20 mM HEPES, 10% glycerol and 2 mM DTT at pH 7.5. Substrate cleavage was measured fluorometrically using a Varioskan Flash Fluorometer (Thermo Fisher Scientific, Waltham, MA, USA; filter sets: ex 360/40 nm, em 460/10 nm). n = 3 independent measurements were performed in triplicate, and data are given as the mean percentage increase ± SD above control, which was set 100%.

[6] = tested on: HepG2 cells; experiment: LDH release assay (unspecific cytotoxicity); format: cell-based, human; settings: HepG2, 0.5 and 10 µM, 12 or 24 h
Experimental: Unspecific cytotoxicity induced by treatment with 0.5 µM and 10 µM of 1a, 1b, 1c and sorafenib (LC Laboratories, Woburn, MA, USA) was determined by measuring the release of lactate dehydrogenase (LDH) from HepG2 cells into the supernatant after 12 and 24 h (Cytotoxicity Detection KitPLUS LDH, Roche Diagnostics GmbH, Mannheim, Germany). The supernatant of treated samples was collected, and adherent non-treated cells were lysed with 2% Triton X-100 for 10 min to determine the maximum LDH release. All samples were mixed with catalyst and dye solution for 30 min, resulting in the formation of formazan dye proportional to LDH enzyme activity. The absorbance was measured at 490/630 nm using an ELISA reader (Dynex Technologies, Denkendorf, Germany) and cytotoxicity was determined by subtracting the percentage of LDH release under control conditions of those from treated samples. Experiments were performed in duplicate and data are given as mean percentage changes ± SD as compared to controls of n = 3 experiments.

[7] = tested on: human Huh-7 HCC cells; experiment: Growth inhibition, crystal violet staining, Huh-7; format: cell-based; settings: 48 h incubation, mean ± SD, read-out: Anti-proliferative activity IC50, Huh-7
Experimental: as §3, §4

[8] = tested on: HepG2 cells; experiment: Colony-formation assay; format: cell-based, human; settings: 1, 5, 10 µM, 14 days
Experimental: HepG2 cells were seeded in 6-well plates at a density of 300 cells/well and allowed to attach overnight. […] Then, the plates were washed twice with PBS, fixed with 4% formaldehyde for 1 h, and stained with 0.5% crystal violet for 3 min. Excessive crystal violet was washed out and the colonies were counted under the microscope. A colony was defined as a cell aggregate with 50 or more cells. Representative images were taken with a kappa digital camera system (Kappa Optronics GmbH, Germany). A total of n = 3 experiments were performed, and significance was tested by one-way ANOVA assays.

[9] = tested on: HepG2-tumors grown on membranes of fertilized chicken eggs; experiment: Chorioallantoic membrane (CAM) assay; format: in vivo; settings: for tumor reduction vs PBS-treated controls (in words): topical treatment 72 h, 1b 0–10 µM, 1c 0–2.5 µM, sorafenib 10 µM
Experimental: The chorioallantoic membrane (CAM) assay was performed as described previously. Fertilized chicken eggs (Gallus gallus) were obtained from commercial sources (Valo GmbH, Germany) and incubated in a humid environment at 38 °C. On day 3 of the egg development, a window was cut in the eggshell to access the developing vascular network of the CAM. At day 10 of chicken embryo development, a sterile silicon ring (10 mm diameter) was placed on the CAM and tumor plugs of 3 × 10^6 HepG2 cells in 20 µL Matrigel (BD Biosciences) with reduced growth factors were placed inside the silicon ring. After 24 h at 38 °C in an incubator, the tumor plaques attached and connected to the (tumor-)feeding CAM microvasculature. Then, the tumor plaques were topically treated with either PBS (negative control) or PBS containing rising concentrations of 1b (0–10 µM), 1c (0–2.5 µM) or sorafenib (10 μM) for 3 days. Tumor growth and viability of the embryo were controlled daily by stereo microscopy. After 72 h of treatment, the tumors were recovered for weighing and pictures were taken using a stereomicroscope equipped with a Kappa digital camera system (Kappa Optronics GmbH, Germany). For data analysis, the tumor weight of 1c-treated and untreated control tumors was determined and the mean weight of treated vs. untreated tumors of 11 eggs for each condition was calculated. Statistical significance evaluated by one-way ANOVA tests.

[10] = tested on: Pim-1; settings: cited from earlier work

T1 sequence (P35968 20-1356): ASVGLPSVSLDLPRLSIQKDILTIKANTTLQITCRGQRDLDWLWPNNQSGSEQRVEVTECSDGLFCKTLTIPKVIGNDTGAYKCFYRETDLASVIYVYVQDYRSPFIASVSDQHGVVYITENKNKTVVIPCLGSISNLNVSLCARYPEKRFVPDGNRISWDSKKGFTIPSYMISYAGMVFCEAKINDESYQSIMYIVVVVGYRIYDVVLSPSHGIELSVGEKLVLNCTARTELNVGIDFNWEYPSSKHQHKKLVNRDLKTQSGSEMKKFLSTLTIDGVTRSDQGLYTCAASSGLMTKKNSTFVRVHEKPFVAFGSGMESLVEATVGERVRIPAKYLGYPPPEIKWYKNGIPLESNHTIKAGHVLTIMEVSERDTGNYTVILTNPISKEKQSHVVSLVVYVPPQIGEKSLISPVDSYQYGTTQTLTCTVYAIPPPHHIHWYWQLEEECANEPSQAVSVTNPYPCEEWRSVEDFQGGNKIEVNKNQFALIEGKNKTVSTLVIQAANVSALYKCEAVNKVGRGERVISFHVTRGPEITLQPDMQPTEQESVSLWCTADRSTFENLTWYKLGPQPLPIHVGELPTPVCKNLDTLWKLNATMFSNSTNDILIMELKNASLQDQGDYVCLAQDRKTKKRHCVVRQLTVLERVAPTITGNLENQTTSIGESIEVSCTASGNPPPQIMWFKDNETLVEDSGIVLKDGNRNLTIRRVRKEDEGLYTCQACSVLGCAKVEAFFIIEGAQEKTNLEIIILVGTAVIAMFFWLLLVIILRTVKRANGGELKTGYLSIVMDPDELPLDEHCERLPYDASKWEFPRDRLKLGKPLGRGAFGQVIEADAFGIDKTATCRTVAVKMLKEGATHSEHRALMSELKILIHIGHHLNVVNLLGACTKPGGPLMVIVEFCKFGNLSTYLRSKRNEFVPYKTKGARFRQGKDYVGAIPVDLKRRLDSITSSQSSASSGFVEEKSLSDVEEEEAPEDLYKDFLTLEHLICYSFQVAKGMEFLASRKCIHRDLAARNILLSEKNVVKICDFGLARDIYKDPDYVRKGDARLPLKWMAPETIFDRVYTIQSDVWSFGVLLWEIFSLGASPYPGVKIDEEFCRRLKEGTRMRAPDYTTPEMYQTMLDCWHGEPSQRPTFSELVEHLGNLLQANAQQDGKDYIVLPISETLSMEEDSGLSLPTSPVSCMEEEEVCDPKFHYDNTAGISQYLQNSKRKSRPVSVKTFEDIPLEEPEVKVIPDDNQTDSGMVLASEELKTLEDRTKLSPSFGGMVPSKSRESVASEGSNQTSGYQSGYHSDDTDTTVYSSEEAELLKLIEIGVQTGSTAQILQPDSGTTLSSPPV
T2 sequence (P49759 whole entry): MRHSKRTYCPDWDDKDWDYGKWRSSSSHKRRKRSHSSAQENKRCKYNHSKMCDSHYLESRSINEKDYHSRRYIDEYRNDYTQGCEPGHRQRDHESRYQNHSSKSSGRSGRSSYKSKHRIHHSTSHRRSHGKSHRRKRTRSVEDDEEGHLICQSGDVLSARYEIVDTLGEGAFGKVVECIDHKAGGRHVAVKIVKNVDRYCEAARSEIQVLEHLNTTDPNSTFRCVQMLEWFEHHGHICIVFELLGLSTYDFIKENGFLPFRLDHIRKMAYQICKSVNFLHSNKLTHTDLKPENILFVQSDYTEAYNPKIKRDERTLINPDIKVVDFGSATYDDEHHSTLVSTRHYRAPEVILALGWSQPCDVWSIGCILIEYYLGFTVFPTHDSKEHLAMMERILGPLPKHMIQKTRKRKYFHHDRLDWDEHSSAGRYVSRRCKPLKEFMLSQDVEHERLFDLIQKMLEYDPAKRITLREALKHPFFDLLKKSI

Structure (SMILES) | IC50 [3] [µM] | IC50 [4] [µM] | IC50 [7] [µM] | also measured
COc1ccc(C=C(C#N)c2cccs2)cc1 [Compound 1a] | 6.79 ± 0.32 | 1.46 ± 0.21 | 1.2 ± 0.42 | inhibition of VEGFR-2 (KDR) [1]: lacks any activity; inhibition at 10 µM [2]: 68%; IC50 against AML-12 hepatocytes relative to hepatoma cells [3]: up to 10 fold; caspase-3 activity (in words) [5]: dose-dependently induced caspase-3 activity; LDH release / unspecific cytotoxicity (in words) [6]: do not exert considerable unspecific cytotoxicity; effect on HepG2 colony formation (in words) [8]: significantly inhibited HepG2 colony formation
CN(C)c1ccc(C=C(C#N)c2cccs2)cc1 [Compound 1b] | 2.72 ± 0.78 | 0.72 ± 0.09 | 0.67 ± 0.13 | inhibition at 10 µM [1]: 86%; IC50 against AML-12 hepatocytes relative to hepatoma cells [3]: up to 10 fold; caspase-3 activity compared with the other compounds (in words) ([5]; HepG2, 10 µM): comparably stronger increase in caspase-3 activity than the other compounds; caspase-3 activity (in words) [5]: dose-dependently induced caspase-3 activity; LDH release / unspecific cytotoxicity (in words) [6]: do not exert considerable unspecific cytotoxicity; tumor reduction vs PBS-treated controls (in words) [9]: pronounced tumor reductions; tolerability, mortality and development of chicken embryos ([9]; treated vs untreated eggs): well tolerated; effect on HepG2 colony formation (in words) [8]: significantly inhibited HepG2 colony formation
COc1cc(/C=C(\C#N)c2cccs2)ccc1O [Compound 1d] | – | > 20 | > 20 | –
COc1ccc(C=C(C#N)c2cccs2)cc1C [Compound 1e, 2-[1-Cyano-2-(3-methyl-4-methoxyphenyl)-(E)-ethenyl)]-thiophene] | 14.8 ± 2.39 | 1.3 ± 0.17 | 1.85 ± 0.21 | IC50 against AML-12 hepatocytes relative to hepatoma cells [3]: up to 10 fold; caspase-3 activity (in words) [5]: dose-dependently induced caspase-3 activity; effect on HepG2 colony formation (in words) [8]: significantly inhibited HepG2 colony formation
COc1cc(/C=C(\C#N)c2cccs2)ccc1-c1ccccc1Cl [Compound 1f] | – | > 20 | > 20 | –
COCCOc1cc(/C=C(\C#N)c2cccs2)ccc1OC [Compound 1g, 2-[1-Cyano-2-[4-Methoxy-3-(2-methoxyethoxy)phenyl]-(E)-ethenyl}-thiophene] | – | > 20 | > 20 | –
COCCOc1ccc(/C=C(\C#N)c2cccs2)cc1OCCOC [Compound 1h, 2-{1-Cyano-2-[3,4-bis(2-methoxyethoxy)phenyl]-(E)-ethenyl}-thiophene] | – | > 20 | > 20 | –
CN1CCN(c2ccc(/C=C(\C#N)c3cccs3)cc2)CC1 [Compound 1i, 2-[1-Cyano-2-(4-N-methylpiperazin-1-ylphenyl)-(E)-ethenyl]-thiophene] | 20.5 ± 1.25 | 9.3 ± 0.82 | 11.8 ± 0.56 | –
COc1ccc(/C=C(\C#N)c2cccs2)cc1F [Compound 1j, 2-[1-Cyano-2-(3-fluoro-4-methoxyphenyl)-(E)-ethenyl]-thiophene] | 9.42 ± 0.91 | 4.9 ± 1.54 | 5.7 ± 1.2 | –
COCCOc1ccc(/C=C(\C#N)c2cccs2)cc1F [Compound 1k, 2-{1-Cyano-2-[3-fluoro-4-(2-methoxyethoxy)phenyl]-(E)-ethenyl}-thiophene] | – | > 20 | > 20 | –
COc1ccc(/C=C(\C#N)c2cccs2)cc1Br [Compound 1l, 2-[1-Cyano-2-(3-bromo-4-methoxyphenyl)-(E)-ethenyl]-thiophene] | – | 13.9 ± 1.16 | – | –
N#C/C(=C\c1cccc(O)c1)c1cccs1 [Compound 1m, 2-[1-Cyano-2-(3-hydroxyphenyl)-(E)-ethenyl]-thiophene] | – | > 20 | > 20 | –
COc1ccc(/C=C(\C#N)c2cccs2)cc1OCCCN1CCOCC1 [Compound 1n, 2-{1-Cyano-2-[4-methoxy-3-(3-morpholinopropoxy)phenyl]-(E)-ethenyl}-thiophene] | – | > 20 | > 20 | –
Cn1ccc2cc(/C=C(\C#N)c3cccs3)ccc21 [Compound 1o, 2-{1-Cyano-2-[N-methylindol-5-yl]-(E)-ethenyl}-thiophene] | – | > 20 | > 20 | –
COc1ccc(C=C(C#N)c2cccnc2)cc1O [Compound 2, reference compound] | – | 6.26 ± 1.18 | – | –
CNC(=O)c1cc(Oc2ccc(NC(=O)Nc3ccc(Cl)c(C(F)(F)F)c3)cc2)ccn1 [Sorafenib, sorafenib, reference compound] | – | 2.73 ± 0.76 | 2.5 ± 0.14 | caspase-3 activity (in words) [5]: dose-dependently induced caspase-3 activity; LDH release / unspecific cytotoxicity (in words) [6]: do not exert considerable unspecific cytotoxicity; tumor reduction vs PBS-treated controls (in words) [9]: pronounced tumor reductions; Pim-1 inhibitory activity (in words) [10]: no Pim-1 inhibitory activity
